Among the test systems are MDA-MB-435; MDA-MB-231; M19-MEL; LXFL 529; DMS-273; KM-20L2; DMS-114.
Assay in all cases: NCI tumour cell line growth inhibition, 48 h

SMILES strings stand for the structures.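 Following 48 hours of exposure in 96-well plates, responses at five concentrations were used to interpolate endpoints linearly. GI50: concentration for 50% inhibition of growth.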 Active and inactive are the calls of the source. Cut-off read from the data, not from the text of the source: active = GI50 up to about 1.1 µM and inactive = higher.

In the case of `CCCC1C2=C(C(=O)OC2=O)C2C(CC)CC3=C(C(=O)OC3=O)C12` (configuration not stated), the GI50 in the test on MDA-MB-435 and in the test with MDA-MB-231 was > 100 µM (inactive) in each case.

Turning to `CC1=NN(C(=O)CSc2nc3ccc(I)cc3c(=O)n2Cc2ccccc2)C(=O)C1`, the values for the GI50 with MDA-MB-435 and in the test on MDA-MB-231 were 26.4 µM (inactive) and 16.9 µM (inactive), respectively.

With `O=C1c2ccc(O)c(O)c2C(=O)c2c(O)ccc(O)c21` [QUINALIZARIN], the GI50 in the test on M19-MEL was 33.9 µM (inactive); in the test on LXFL 529, 27.5 µM (inactive); in the test on DMS-273, 25.2 µM (inactive); with KM-20L2 it was 25.4 µM (inactive); in the test on DMS-114, 15.9 µM (inactive).

In the case of `O=C(COC(=O)c1ccccc1)c1ccc(Br)cc1`, the GI50 in the test with MDA-MB-435 is 6.78 µM (inactive); in the test on MDA-MB-231, 14.3 µM (inactive).

For the molecule `CCNC(=O)c1cc(Cl)ccc1NC(=O)C12CC3CC(CC(C3)C1)C2`, the results for the GI50 in the test with MDA-MB-435 and in the test on MDA-MB-231 were 29 µM (inactive) and 71.8 µM (inactive), respectively.

For the molecule `CC1=NN(c2cccc(Cl)c2)C2(SCC(=O)N2c2nc3ccccc3s2)C1=CC=Cc1ccccc1` (configuration not stated), the values for the GI50 in the test on MDA-MB-435 and in the test with MDA-MB-231 were 31 µM (inactive) and 27.9 µM (inactive), respectively.

As for `O=c1oc2ccc([N+](=O)[O-])cc2c(Nc2ccc3c(c2)Oc2ccccc2O3)c1[N+](=O)[O-]`, the values for the GI50 with MDA-MB-435 and in the test with MDA-MB-231 were 37.1 µM (inactive) and 19.1 µM (inactive), respectively.

As for `CSCCC(NCc1c(O)ccc2ccc(=O)oc12)C(=O)O` (configuration not stated), the GI50 in the test with MDA-MB-435 is 70.8 µM (inactive); with MDA-MB-231, > 100 µM (inactive).

As to `Cc1cc2c(cc1-c1cc3c(cc1C)C(C(C)C)=C(O)C(=O)/C3=C\Nc1nc(-c3ccccc3)cs1)/C(=C/Nc1nc(-c3ccccc3)cs1)C(=O)C(O)=C2C(C)C`, the GI50 in the test on MDA-MB-435 was 16.9 µM (inactive); in the test on MDA-MB-231 it was 10.8 µM (inactive).

`CCOC(=O)c1cc(C2CCN(Cc3ccccc3)C2=O)c(C(=O)C(=[N+]=[N-])C(C)=O)[nH]1` (configuration not stated): the GI50 in the test with MDA-MB-435 and in the test on MDA-MB-231 was > 100 µM (inactive) in each case.

Turning to `O=C1c2ccccc2C(=O)c2sc(Nc3ccccc3C(F)(F)F)nc21`, the GI50 in the test on MDA-MB-435 was 4.82 µM (inactive); with MDA-MB-231 it was 0.264 µM (active).

With `Cc1cc(-c2nc3c(F)cccc3s2)ccc1N`, the GI50 with MDA-MB-435 is 57.3 µM (inactive); in the test on MDA-MB-231, > 100 µM (inactive).

`CCOC(=O)N1c2ccccc2N(C(=O)OCC)C1CC(=O)/C=C/c1ccccc1`: the GI50 with MDA-MB-435 is 2.74 µM (inactive); in the test on MDA-MB-231 it was 4.03 µM (inactive).

For `c1cc2cc3c4c5c(cc6ccc7cc8cc9c%10c8c8c7c6c5c8c5c%10c(c1C9N1CCOCCOCCOCCOCCOCC1)c2c45)C3` (configuration not stated), the GI50 in the test with MDA-MB-435 and with MDA-MB-231 was > 100 µM (inactive) throughout.

On to `CC1(C)OC2OC(C(COS(=O)(=O)C(F)(F)F)N=[N+]=[N-])C(OC(=O)c3ccccc3)C2O1` (configuration not stated), for which the GI50 in the test with MDA-MB-435 and in the test on MDA-MB-231 was > 100 µM (inactive) each time.

With `COc1cccc(-c2cc(O)c3cc(N4CCN(C)CC4)ccc3n2)c1`, the GI50 was 0.225 µM (active) in the test on MDA-MB-435 and 3.34 µM (inactive) in the test with MDA-MB-231.

On to `COc1ccc(/C=N/NS(=O)(=O)c2ccc(/C=C3\NC(=O)N(C)C3=O)cc2)cc1`, for which the GI50 was > 100 µM (inactive) in the test on MDA-MB-435 and 38.8 µM (inactive) in the test with MDA-MB-231.

Consider `CCOP(=O)(/C=C/n1cnc2c(=O)n(C(C)=O)c(N)nc21)OCC`, for which the GI50 with MDA-MB-435 and in the test with MDA-MB-231 was > 100 µM (inactive) throughout.

Consider `N=C(N)NCCCC(NCc1c2ccccc2nc2ccccc12)C(=O)O` (configuration not stated), for which the GI50 was 58.7 µM (inactive) in the test with M19-MEL; 41.8 µM (inactive) in the test with MDA-MB-435; 38.5 µM (inactive) in the test on LXFL 529; 23.8 µM (inactive) in the test with MDA-MB-231; 31.3 µM (inactive) in the test on DMS-273; 29.4 µM (inactive) in the test on KM-20L2. Moreover, the GI50 in the test with DMS-114 is 23.3 µM (inactive).

As to `O=C(O)c1cccc2c1/C(=N/Nc1ccccc1)CC2`, the GI50 in the test on MDA-MB-435 and in the test with MDA-MB-231 was > 100 µM (inactive) throughout.

Consider `COC(=O)CC1(O)C(C=C(C)C)C(C(=O)OC)C(=O)C(C(=O)OC)C1C(=O)OC` (configuration not stated), for which the GI50 with MDA-MB-435 and in the test on MDA-MB-231 was > 100 µM (inactive) each time.

Take `OC(COc1cccc2ccccc12)CN1CCOCC1` (configuration not stated): the GI50 in the test on MDA-MB-435 and with MDA-MB-231 was > 100 µM (inactive) in each case.

Turning to `C1CC[N+]23CCCC[N+]2(C1)CCCC3` (configuration not stated), the GI50 is > 100 µM (inactive) with M19-MEL, > 100 µM (inactive) in the test with LXFL 529, > 100 µM (inactive) in the test on KM-20L2 and 56.2 µM (inactive) with DMS-114.

Regarding `CC1CC(=O)C(CC(=O)O)C1C(C(=O)C(=O)Nc1c(C#N)cccc1[N+](=O)[O-])[N+](=O)[O-]` (configuration not stated), the GI50 in the test with M19-MEL, with LXFL 529, in the test on KM-20L2 and in the test on DMS-114 was > 100 µM (inactive) each time.

Turning to `Nc1nc(Cl)cc(NCC2(CO)CCC(Cc3ccccc3)C2)n1` (configuration not stated), the GI50 is 7.73 µM (inactive) with MDA-MB-435 and 33 µM (inactive) in the test on MDA-MB-231.

For `COC(=O)C1=C(C(=O)OC)C23C=CC=CC24C(C(=O)OC)=C(C(=O)OC)C4C1C3` (configuration not stated), the GI50 is > 100 µM (inactive) in the test with M19-MEL; 74.1 µM (inactive) in the test with LXFL 529; 72.9 µM (inactive) in the test on DMS-273; > 100 µM (inactive) in the test on KM-20L2; 88.7 µM (inactive) with DMS-114.

(Values after ChEMBL document CHEMBL1201862, “PubChem BioAssay data set” (2004).)
